Experimental data published in patent US11279931B2, “Therapeutic agent for a lung disease and/or method for screening for the same” (Chugai Seiyaku Kabushiki Kaisha, priority 2015, dated 2022).

Assays:
Type in all cases: cell-based, C57BL/6 mice
IL-6 mRNA = IL-6 mRNA expression by qPCR in LPS-stimulated peritoneal macrophages; conditions: test agent 20 μM, LPS (1 g/mL), vs absence of CPZ (FIG. 10)
Experimental: (§1) Peritoneal macrophages from C57BL/6 mice (aged 6 to 8 weeks) were stimulated with LPS ([…]) in the presence or absence of a test agent (20 μM). The relative expression levels of mRNAs of Arid5A, IL-6, and TNF-α were determined in the stimulated peritoneal macrophages by quantitative PCR (qPCR). The expression level of Arid5A mRNA was determined 2 hours after LPS stimulation. The expression levels of IL-6 mRNA and TNF-α mRNA were determined 2 hours, 6 hours, 12 hours, and 24 hours after LPS stimulation. FIGS. 9 to 11 show the results when chlorpromazine (CPZ) was used as a test agent.

TNF-α mRNA = TNF-α mRNA expression by qPCR in LPS-stimulated peritoneal macrophages; conditions: test agent 20 μM, LPS (1 g/mL), determined 2, 6, 12 and 24 hours after LPS stimulation (FIG. 11)
Experimental: as §1

Arid5A mRNA = Arid5A mRNA expression by qPCR in LPS-stimulated peritoneal macrophages; conditions: test agent 20 μM, LPS (1 g/mL), 2 hours after LPS stimulation, vs absence of CPZ (FIG. 9)
Experimental: as §1

CN(C)CCCN1c2ccccc2Sc2ccc(Cl)cc21 [CPZ, chlorpromazine]
expression of IL-6 mRNA (IL-6 mRNA; 2 hours after LPS stimulation): markedly suppressed
expression of IL-6 mRNA (IL-6 mRNA; 6 hours after LPS stimulation): markedly suppressed
expression of TNF-α mRNA (TNF-α mRNA): no effect
expression of Arid5A mRNA (Arid5A mRNA): markedly suppressed
